Data reported in ChEMBL document CHEMBL3774354, “Discovery of Selective Histone Deacetylase 6 Inhibitors Using the Quinazoline as the Cap for the Treatment of Cancer” (J Med Chem, 2016).
Each block holds one compound with its values, some of them ahead of it. Activity calls are given as the source filed them. The rule behind the calls is not given here.

Columns and labels:
Mus musculus [1] = assay: Toxicity in NOD/SCID mouse xenografted with human MV4-11 cells assessed as death at 50 mg/kg, ip q2d for 12 days; assay type: organism-based; conditions: in vivo, 288 h
Mus musculus [2] = assay: Toxicity in Balb/c nude mouse xenografted with human HCT116 cells assessed as death at 50 mg/kg, ip q2d for 9 days; assay type: organism-based, HCT-116; conditions: in vivo, 216 h
Mus musculus [3] = assay: Toxicity in Balb/c nude mouse xenografted with human HCT116 cells assessed as death at 100 mg/kg, po q2d for 8 days; assay type: organism-based, HCT-116; conditions: in vivo, 192 h
MV4-11 [4] = assay: Antitumor activity against human MV4-11 cells xenografted in NOD/SCID mouse assessed as tumor mass change at 50 mg/kg, ip q2d for 12 days; assay type: functional
[5] = Antitumor activity against human HCT116 cells xenografted in Balb/c nude mouse assessed as tumor mass change at 50 mg/kg, ip q2d for 9 days; assay type: functional, HCT-116
[6] = Antitumor activity against human HCT116 cells xenografted in Balb/c nude mouse assessed as tumor mass change at 100 mg/kg, po q2d for 8 days; assay type: functional, HCT-116
Mus musculus [7] = assay: Toxicity in Balb/c nude mouse xenografted with human HCT116 cells assessed as change in body weight at 50 mg/kg, ip q2d for 9 days; assay type: organism-based, HCT-116; conditions: in vivo, 216 h
Mus musculus [8] = assay: Toxicity in Balb/c nude mouse xenografted with human HCT116 cells assessed as change in body weight at 100 mg/kg, po q2d for 8 days; assay type: organism-based, HCT-116; conditions: in vivo, 192 h
[9] = target: T1, Protein deacetylase HDAC6 (Homo sapiens, UniProt Q9UBN7); assay: Inhibition of HDAC6 in human HeLa cells assessed as induction of tubulin acetylation incubated for 6 hrs by cytoblot assay; assay type: cell-based
T1 sequence (Q9UBN7 whole entry): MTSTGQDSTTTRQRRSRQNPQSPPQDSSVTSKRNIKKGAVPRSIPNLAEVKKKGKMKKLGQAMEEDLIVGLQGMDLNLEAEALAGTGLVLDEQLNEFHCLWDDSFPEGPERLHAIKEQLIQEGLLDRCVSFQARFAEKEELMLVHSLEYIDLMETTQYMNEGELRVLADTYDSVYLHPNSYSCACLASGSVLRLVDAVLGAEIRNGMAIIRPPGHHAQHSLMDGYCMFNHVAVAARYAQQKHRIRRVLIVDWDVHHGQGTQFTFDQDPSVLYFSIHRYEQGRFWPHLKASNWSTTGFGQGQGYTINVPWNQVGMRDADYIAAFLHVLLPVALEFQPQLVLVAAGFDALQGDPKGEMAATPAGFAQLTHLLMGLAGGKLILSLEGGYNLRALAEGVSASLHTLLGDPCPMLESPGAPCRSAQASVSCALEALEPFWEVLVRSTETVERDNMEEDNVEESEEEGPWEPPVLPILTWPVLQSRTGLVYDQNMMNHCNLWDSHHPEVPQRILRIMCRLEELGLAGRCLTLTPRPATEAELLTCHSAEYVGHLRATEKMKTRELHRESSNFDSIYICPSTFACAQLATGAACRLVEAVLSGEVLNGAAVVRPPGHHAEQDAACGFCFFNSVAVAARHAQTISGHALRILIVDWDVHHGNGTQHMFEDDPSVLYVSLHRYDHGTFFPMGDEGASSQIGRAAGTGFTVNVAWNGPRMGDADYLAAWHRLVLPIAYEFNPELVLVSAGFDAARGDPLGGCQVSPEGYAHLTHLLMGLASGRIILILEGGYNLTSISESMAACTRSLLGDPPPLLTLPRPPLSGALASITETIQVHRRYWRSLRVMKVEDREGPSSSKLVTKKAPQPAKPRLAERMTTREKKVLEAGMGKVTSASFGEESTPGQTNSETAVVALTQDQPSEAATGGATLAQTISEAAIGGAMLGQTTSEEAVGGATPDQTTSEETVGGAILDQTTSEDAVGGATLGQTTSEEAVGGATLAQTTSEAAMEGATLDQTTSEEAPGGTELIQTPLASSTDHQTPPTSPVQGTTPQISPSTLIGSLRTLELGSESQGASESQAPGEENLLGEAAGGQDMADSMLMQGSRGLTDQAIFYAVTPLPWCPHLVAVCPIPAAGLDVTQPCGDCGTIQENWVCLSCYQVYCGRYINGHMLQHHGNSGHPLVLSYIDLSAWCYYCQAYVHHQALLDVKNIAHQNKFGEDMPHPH

HeLa [10] = assay: Induction of histone H3 acetylation in human HeLa cells incubated for 6 hrs by cytoblot assay; assay type: functional, cell-based
A-375 = assay: Antiproliferative activity against human A375 cells after 72 hrs by MTT assay; assay type: functional, cell-based; conditions: A-375, 72 h
HeLa [11] = assay: Antiproliferative activity against human HeLa cells after 72 hrs by MTT assay; assay type: functional, cell-based
Histone deacetylase 1 = Histone deacetylase 1 (Homo sapiens, UniProt Q13547)
Description: Inhibition of human recombinant HDAC1 using AMC labeled AC-peptide as substrate incubated for 1 hr by fluorescence analysis

[12] = target: T1, Protein deacetylase HDAC6
Description: Inhibition of human recombinant HDAC6 using AMC labeled AC-peptide as substrate incubated for 1 hr by fluorescence analysis

Histone deacetylase 8 = target: T2, Histone deacetylase 8 (Homo sapiens, UniProt Q9BY41)
T2 sequence (Q9BY41 whole entry): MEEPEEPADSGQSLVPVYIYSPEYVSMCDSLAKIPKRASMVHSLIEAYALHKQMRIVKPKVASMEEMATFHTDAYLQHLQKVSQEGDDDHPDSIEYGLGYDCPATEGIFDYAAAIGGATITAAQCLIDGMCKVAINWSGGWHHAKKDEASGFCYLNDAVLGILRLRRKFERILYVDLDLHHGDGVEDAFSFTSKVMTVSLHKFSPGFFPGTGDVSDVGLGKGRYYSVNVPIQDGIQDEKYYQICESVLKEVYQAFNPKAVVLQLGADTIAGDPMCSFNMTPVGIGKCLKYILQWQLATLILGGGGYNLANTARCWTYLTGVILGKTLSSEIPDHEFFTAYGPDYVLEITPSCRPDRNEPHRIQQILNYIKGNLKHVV
Description: Inhibition of human recombinant HDAC8 using AMC labeled AC-peptide as substrate incubated for 1 hr by fluorescence analysis

Ramos [13] = assay: Antitumor activity against human Ramos cells xenografted in NOD/SCID mouse assessed as tumor mass change at 10 mg/kg, ip q2d for 6 days; assay type: functional
Mus musculus [14] = assay: Toxicity in NOD/SCID mouse xenografted with human Ramos cells assessed as change in body weight at 10 mg/kg, ip q2d for 6 days; conditions: in vivo, 144 h
Mus musculus [15] = assay: Toxicity in NOD/SCID mouse xenografted with human Ramos cells assessed as death at 40 mg/kg, po q2d for 6 days; assay type: organism-based; conditions: in vivo, 144 h
[16] = target: T3, Protein deacetylase HDAC6 (Homo sapiens) (UniProt Q9UBN7); assay: Inhibition of HDAC6 in human MV4-11 cells assessed as upregulation of alpha- tubulin acetylation after 6 hrs by Western blot analysis; assay type: cell-based
T3 sequence (whole entry): T1 sequence (Q9UBN7 whole entry)

[17] = target: T3, Protein deacetylase HDAC6 (Homo sapiens); assay: Inhibition of HDAC6 in human HCT116 cells assessed as upregulation of alpha- tubulin acetylation after 6 hrs by Western blot analysis; assay type: cell-based; conditions: HCT-116
Histone deacetylase 5 = Histone deacetylase 5 (Homo sapiens, UniProt Q9UQL6); assay: Inhibition of recombinant HDAC5 (unknown origin) using AMC labeled AC-peptide as substrate at 10 uM incubated for 1 hr by fluorescence analysis
[18] = target: Histone deacetylase 7 (Homo sapiens) (UniProt Q8WUI4); assay: Inhibition of recombinant HDAC7 (unknown origin) using AMC labeled AC-peptide as substrate at 10 uM incubated for 1 hr by fluorescence analysis
Histone deacetylase 9 = Histone deacetylase 9 (Homo sapiens, UniProt Q9UKV0); assay: Inhibition of recombinant HDAC9 (unknown origin) using AMC labeled AC-peptide as substrate at 10 uM incubated for 1 hr by fluorescence analysis
[19] = target: Histone deacetylase 11 (Homo sapiens) (UniProt Q96DB2); assay: Inhibition of recombinant HDAC11 (unknown origin) using AMC labeled AC-peptide as substrate at 10 uM incubated for 1 hr by fluorescence analysis
[20] = Cytotoxicity against human U266 cells after 72 hrs by MTT assay; assay type: functional, cell-based; conditions: U-266, 72 h
[21] = Cytotoxicity against human RPMI8226 cells after 72 hrs by MTT assay; assay type: functional, cell-based; conditions: RPMI-8226, 72 h
MV4-11 [22] = assay: Cytotoxicity against human MV4-11 cells after 72 hrs by MTT assay; assay type: functional, cell-based; conditions: MV4-11, 72 h
K562 = assay: Cytotoxicity against human K562 cells after 72 hrs by MTT assay; assay type: functional, cell-based; conditions: K562, 72 h
Ramos [23] = assay: Cytotoxicity against human Ramos cells after 72 hrs by MTT assay; assay type: functional, cell-based
A2780 = assay: Cytotoxicity against human A2780 cells after 72 hrs by MTT assay; assay type: functional, cell-based; conditions: A2780, 72 h
[24] = Cytotoxicity against human SKOV3 cells after 72 hrs by MTT assay; assay type: functional, cell-based; conditions: SK-OV-3, 72 h
[25] = Cytotoxicity against human SKBR3 cells after 72 hrs by MTT assay; assay type: functional, cell-based; conditions: SK-BR-3, 72 h
HepG2 = assay: Cytotoxicity against human HepG2 cells after 72 hrs by MTT assay; assay type: functional, cell-based; conditions: HepG2, 72 h
[26] = Cytotoxicity against human H460 cells after 72 hrs by MTT assay; assay type: functional, cell-based; conditions: NCI-H460, 72 h
A549 = assay: Cytotoxicity against human A549 cells after 72 hrs by MTT assay; assay type: functional, cell-based; conditions: A549, 72 h
[27] = Cytotoxicity against human HCT116 cells after 72 hrs by MTT assay; assay type: functional, cell-based; conditions: HCT-116, 72 h
HT-29 = assay: Cytotoxicity against human HT-29 cells after 72 hrs by MTT assay; assay type: functional, cell-based; conditions: HT-29, 72 h
[28] = target: Histone deacetylase 1/2/3 (Homo sapiens) (UniProt Q13547+O15379+Q92769); conditions: MV4-11, 1000 nM
Description: Inhibition of HDAC1/2/3 in human MV4-11 cells assessed as upregulation of histone H3 acetylation at 1000 nM after 6 hrs by Western blot analysis

Chain of Histone deacetylase 1 (Q13547 whole entry): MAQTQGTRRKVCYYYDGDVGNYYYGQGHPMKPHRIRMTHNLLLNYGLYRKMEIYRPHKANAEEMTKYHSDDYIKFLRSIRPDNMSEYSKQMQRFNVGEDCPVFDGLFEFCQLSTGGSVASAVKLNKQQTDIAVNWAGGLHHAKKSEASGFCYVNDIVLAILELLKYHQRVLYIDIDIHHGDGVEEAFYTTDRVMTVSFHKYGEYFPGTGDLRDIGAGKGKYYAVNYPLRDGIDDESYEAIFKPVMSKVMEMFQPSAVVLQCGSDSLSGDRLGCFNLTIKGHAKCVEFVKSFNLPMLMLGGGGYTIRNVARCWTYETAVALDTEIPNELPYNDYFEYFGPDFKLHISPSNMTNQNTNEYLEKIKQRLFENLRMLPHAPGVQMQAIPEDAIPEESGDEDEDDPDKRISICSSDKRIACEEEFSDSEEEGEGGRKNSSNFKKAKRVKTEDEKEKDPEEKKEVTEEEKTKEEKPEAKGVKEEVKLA
Chain of Histone deacetylase 11 (Homo sapiens) (Q96DB2 whole entry): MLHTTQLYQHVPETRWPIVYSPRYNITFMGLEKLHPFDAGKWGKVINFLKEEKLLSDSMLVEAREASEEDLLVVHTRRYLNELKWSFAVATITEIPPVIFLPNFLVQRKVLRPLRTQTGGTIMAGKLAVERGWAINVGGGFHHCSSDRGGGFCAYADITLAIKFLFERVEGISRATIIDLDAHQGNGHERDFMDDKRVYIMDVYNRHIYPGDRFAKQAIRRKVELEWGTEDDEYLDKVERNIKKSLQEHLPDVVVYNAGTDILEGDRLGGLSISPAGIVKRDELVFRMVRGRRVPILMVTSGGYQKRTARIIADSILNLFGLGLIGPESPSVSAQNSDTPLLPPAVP
Chain of Histone deacetylase 5 (Q9UQL6 whole entry): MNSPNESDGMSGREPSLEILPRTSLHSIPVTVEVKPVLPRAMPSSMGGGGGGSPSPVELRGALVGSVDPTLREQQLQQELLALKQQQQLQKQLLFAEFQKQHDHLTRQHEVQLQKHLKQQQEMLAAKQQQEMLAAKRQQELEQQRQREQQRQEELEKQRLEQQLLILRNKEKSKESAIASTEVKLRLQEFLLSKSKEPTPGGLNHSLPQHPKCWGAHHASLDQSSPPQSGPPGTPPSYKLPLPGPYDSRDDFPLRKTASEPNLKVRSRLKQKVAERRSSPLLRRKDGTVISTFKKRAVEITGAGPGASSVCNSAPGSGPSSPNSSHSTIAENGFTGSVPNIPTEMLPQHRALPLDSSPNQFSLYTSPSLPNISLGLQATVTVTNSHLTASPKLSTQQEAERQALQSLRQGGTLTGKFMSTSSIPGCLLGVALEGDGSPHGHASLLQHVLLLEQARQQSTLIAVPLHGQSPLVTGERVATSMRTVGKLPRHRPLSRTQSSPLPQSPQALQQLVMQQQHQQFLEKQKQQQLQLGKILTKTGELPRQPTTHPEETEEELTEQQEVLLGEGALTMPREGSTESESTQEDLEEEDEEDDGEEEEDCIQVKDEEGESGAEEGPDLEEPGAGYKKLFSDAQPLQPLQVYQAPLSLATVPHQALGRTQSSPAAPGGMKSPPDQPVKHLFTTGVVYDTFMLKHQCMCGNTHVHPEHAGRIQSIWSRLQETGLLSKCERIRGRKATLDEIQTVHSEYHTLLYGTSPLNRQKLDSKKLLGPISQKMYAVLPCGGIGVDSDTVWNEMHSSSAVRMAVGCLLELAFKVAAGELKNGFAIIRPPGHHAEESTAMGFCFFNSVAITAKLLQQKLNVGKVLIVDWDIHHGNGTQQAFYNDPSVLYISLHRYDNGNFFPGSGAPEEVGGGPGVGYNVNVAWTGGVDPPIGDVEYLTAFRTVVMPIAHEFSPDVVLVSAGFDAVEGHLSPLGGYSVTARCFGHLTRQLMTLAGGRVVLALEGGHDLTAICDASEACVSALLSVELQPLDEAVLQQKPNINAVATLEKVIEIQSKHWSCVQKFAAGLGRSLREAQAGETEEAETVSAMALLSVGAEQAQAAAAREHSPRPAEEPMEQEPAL
Chain of Histone deacetylase 7 (Homo sapiens) (Q8WUI4 whole entry): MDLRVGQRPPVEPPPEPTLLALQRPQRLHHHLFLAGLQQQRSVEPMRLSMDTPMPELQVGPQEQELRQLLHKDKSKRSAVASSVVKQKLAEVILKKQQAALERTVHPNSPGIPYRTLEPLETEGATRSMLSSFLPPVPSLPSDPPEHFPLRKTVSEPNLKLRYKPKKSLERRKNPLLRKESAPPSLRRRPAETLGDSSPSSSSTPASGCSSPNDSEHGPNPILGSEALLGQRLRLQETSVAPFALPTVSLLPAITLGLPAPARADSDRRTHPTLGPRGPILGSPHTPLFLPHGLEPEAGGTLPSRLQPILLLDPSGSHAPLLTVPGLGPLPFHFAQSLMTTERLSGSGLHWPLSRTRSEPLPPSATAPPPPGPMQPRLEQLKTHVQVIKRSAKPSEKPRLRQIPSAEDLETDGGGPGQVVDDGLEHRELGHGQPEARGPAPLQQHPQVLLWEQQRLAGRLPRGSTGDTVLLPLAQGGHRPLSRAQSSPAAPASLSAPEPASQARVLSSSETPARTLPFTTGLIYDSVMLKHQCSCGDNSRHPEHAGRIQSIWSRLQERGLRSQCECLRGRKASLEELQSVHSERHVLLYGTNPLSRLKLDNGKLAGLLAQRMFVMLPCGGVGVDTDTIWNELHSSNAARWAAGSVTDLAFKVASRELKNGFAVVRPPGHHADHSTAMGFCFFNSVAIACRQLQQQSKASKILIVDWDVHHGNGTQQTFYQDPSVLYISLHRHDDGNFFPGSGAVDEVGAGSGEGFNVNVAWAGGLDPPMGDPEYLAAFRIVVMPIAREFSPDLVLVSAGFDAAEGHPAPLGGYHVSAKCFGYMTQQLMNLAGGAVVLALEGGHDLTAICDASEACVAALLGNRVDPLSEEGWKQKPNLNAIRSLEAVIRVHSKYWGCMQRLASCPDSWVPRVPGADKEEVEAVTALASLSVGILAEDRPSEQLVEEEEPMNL
Chain of Histone deacetylase 9 (Q9UKV0 whole entry): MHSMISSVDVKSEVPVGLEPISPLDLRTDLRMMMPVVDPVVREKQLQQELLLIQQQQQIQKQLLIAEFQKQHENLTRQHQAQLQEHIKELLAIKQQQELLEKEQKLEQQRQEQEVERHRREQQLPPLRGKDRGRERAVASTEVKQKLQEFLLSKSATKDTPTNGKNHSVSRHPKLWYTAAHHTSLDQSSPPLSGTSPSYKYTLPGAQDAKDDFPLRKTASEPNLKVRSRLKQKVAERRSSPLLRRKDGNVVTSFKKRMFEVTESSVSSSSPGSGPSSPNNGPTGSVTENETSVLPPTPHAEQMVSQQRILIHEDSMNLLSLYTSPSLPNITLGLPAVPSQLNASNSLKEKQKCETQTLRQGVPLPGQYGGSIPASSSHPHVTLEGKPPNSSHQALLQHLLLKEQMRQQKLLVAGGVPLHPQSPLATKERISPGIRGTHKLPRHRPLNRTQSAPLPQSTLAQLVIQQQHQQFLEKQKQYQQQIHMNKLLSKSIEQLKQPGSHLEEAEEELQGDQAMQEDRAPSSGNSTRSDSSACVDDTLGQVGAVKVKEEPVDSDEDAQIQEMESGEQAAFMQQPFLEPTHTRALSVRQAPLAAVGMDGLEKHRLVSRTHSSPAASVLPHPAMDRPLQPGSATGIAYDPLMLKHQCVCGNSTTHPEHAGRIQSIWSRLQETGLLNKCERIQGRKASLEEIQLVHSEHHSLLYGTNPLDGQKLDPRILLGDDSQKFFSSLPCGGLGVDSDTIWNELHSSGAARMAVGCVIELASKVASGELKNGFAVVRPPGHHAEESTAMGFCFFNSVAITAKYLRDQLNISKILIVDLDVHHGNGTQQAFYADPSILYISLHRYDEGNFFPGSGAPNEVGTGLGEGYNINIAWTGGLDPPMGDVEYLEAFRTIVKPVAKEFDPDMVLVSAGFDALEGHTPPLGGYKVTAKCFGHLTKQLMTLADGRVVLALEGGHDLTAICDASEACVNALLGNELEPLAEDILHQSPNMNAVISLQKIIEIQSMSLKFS

SMILES: O=C(CCCCCCC(=O)Nc1ccccc1)NO [VORINOSTAT]
Activity (Mus musculus [1]): Non-toxic | Activity (Mus musculus [2]): Non-toxic | Activity (Mus musculus [3]): Non-toxic | Activity (MV4-11 [4]): 0% | Activity [5]: 36.6% | Activity [6]: 59.2% | Activity (Mus musculus [7]): -3% | Activity (Mus musculus [8]): -6.1%

SMILES: Cc1[nH]c2ccccc2c1CCNCc1ccc(/C=C/C(=O)NO)cc1 [PANOBINOSTAT]
Activity (Ramos [13]): 16.6% | Activity (Mus musculus [14]): -1.9%

SMILES: CN(c1ccc(OCC(=O)NO)cc1)c1ncnc2ccccc12
EC50 [9]: 49.4 nM | EC50 (HeLa [10]): 1260 nM | IC50 (A-375): 432 nM | IC50 (HeLa [11]): 379 nM | IC50 (Histone deacetylase 1): 242 nM | IC50 [12]: 14 nM | IC50 (Histone deacetylase 8): 1420 nM

SMILES: O=C(CCCCCCNC(=O)c1cnc(N(c2ccccc2)c2ccccc2)nc1)NO [RICOLINOSTAT]
Activity (Mus musculus [15]): Non-toxic | inhibition [16]: Dose-dependent effect | inhibition [17]: Dose-dependent effect | IC50 (HeLa [11]): > 5000 nM | inhibition (Histone deacetylase 5): inactive | inhibition [18]: inactive | inhibition (Histone deacetylase 9): inactive | inhibition [19]: inactive | IC50 [20]: > 5 µM | IC50 [21]: 1470 nM | IC50 (MV4-11 [22]): > 5 µM | IC50 (K562): > 5 µM | IC50 (Ramos [23]): > 5 µM | IC50 (A2780): > 5 µM | IC50 [24]: > 5 µM | IC50 [25]: > 5 µM | IC50 (HepG2): > 5 µM | IC50 [26]: > 5 µM | IC50 (A549): > 5 µM | IC50 [27]: > 5 µM | IC50 (HT-29): > 5 µM | inhibition [28]: Active

SMILES: COc1ccc(N(C)c2nc(C)nc3ccccc23)cc1OCC(=O)NO
IC50 (Histone deacetylase 1): > 1000 nM | IC50 [12]: > 1000 nM | IC50 (Histone deacetylase 8): > 1000 nM

Next, values leading:

EC50 [9]: 50.8 nM | EC50 (HeLa [10]): 1770 nM | IC50 (A-375): 2850 nM | IC50 (HeLa [11]): 2220 nM | IC50 (Histone deacetylase 1): 264 nM | IC50 [12]: 17 nM | IC50 (Histone deacetylase 8): 2970 nM
SMILES: Cc1nc2c(c(N(C)c3ccc(OCC(=O)NO)cc3)n1)CCC2

IC50 (Histone deacetylase 1): 253 nM | IC50 [12]: 111 nM
SMILES: COc1ccc(N(C)c2nc(C)nc3ccccc23)cc1OCCCCC(=O)NO

IC50 (Histone deacetylase 1): > 1000 nM | IC50 [12]: > 1000 nM | IC50 (Histone deacetylase 8): > 1000 nM
SMILES: COc1ccc(Nc2nc(C)nc3ccccc23)cc1OCCCC(=O)NO

IC50 (Histone deacetylase 1): 212 nM | IC50 [12]: 63 nM | IC50 (Histone deacetylase 8): 1990 nM
SMILES: Cc1nc2c(c(N(C)c3ccc(OCCCCC(=O)NO)cc3)n1)CCC2
